Measurements published in US20100041891A1, “AMIDE COMPOUND” (Takeda Pharmaceutical Company Limited, priority 2008, published 2010).

Assays:
human GPR52 = target: T1, human GPR52 (Homo sapiens, UniProt Q9Y2T5); test: Increased intracellular cAMP levels in human GPR52 expression CHO cells; type: cell-based; details: 1 μM test compound, 30 min at 37° C., human GPR52 expression CHO (dhfr-) cells; 100% = cAMP level with 1 μM Reference Example 136, 0% = DMSO
T1 construct: expressed in transfected cells; host or cells: CHO (dhfr-) cells
T1 sequence (Q9Y2T5 whole entry): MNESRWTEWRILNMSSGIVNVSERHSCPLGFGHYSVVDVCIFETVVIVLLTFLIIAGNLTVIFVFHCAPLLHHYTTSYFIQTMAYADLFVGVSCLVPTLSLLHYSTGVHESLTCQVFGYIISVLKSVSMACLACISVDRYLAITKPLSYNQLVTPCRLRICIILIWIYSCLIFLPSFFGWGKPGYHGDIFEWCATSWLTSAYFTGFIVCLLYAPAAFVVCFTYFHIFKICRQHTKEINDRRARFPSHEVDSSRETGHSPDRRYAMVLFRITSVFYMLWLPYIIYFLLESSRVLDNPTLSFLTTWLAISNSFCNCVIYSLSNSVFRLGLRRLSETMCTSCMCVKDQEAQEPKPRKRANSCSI
Method: Increased intracellular cAMP levels in human GPR52 expression CHO cells 1×10^4 human GPR52 expression CHO (dhfr-) cells were incubated with 1 μM test compound for 30 min at 37° C. in 30 μL assay buffer (HBSS (containing Ca^2+ and Mg^2+), 0.5% BSA, 100 μM IBMX, 100 μM Ro 20-1724, 5 mM HEPES (pH 7.55)) using an OptiPlate-384 (by PerkinElmer). The intracellular cAMP level was then assayed with an EnVision (by PerkinElmer) according to the protocol of the AlphaScreen cAMP Assay Kit (by PerkinElmer). The GPR52 agonist activity was calculated, assuming the intracellular cAMP level in the presence of 1 μM of 3-(6-(2-(3,4-dimethoxyphenyl)ethoxy)pyridine-2-yl)-N-(2-pyrrolidin-1-ylethyl)benzamide (Reference Example 136) to be 100% and assuming the intracellular cAMP level when DMSO was added instead of test compound to be 0%.

[1] = tested on: methamphetamine-induced locomotor hyperactivity in mice; test: Inhibition of methamphetamine-induced locomotor hyperactivity; type: in vivo; details: male ICR mice, test compound 30 mg/kg orally, 60 min later methamphetamine 2 mg/kg subcutaneous, locomotor activity 90 min after methamphetamine, versus vehicle group
Method: Compounds of the present invention can be evaluated by assessing the inhibition of methamphetamine-induced locomotor hyperactivity in mice. The method of Okuyama et al was modified to test the inhibition of methamphetamine-induced locomotor hyperactivity (Life Science, Vol. 65, pages 2109-2125 (1999)).
Locomotor activity was measured using a 32-channel locomotor activity measurement device MDC-LT (by BrainScience Idea Co., Ltd.), which emits infrared beams from the top of a cage (30×40×20 cm). 6- to 8-week old male ICR mice were acclimated for at least 45 min in the measurement cages, and then either test compound (30 mg/kg) dissolved in vehicle (0.5% methylcellulose aqueous solution) or the vehicle alone were orally administered. This oral administration was followed 60 min later by subcutaneous administration of methamphetamine (2 mg/kg).
90 min after administration of methamphetamine, the number of times the laboratory animals passed through the infrared beams emitted inside the measurement cages was measured to quantify locomotor activity. The following equation was used to calculate the rate at which methamphetamine-induced locomotor hyperactivity was inhibited (activity inhibition rate (%)).
Activity inhibition rate (%)={1−(locomotor activity after treatment with methamphetamine in test compound treatment group÷locomotor activity after treatment with methamphetamine in vehicle treatment group)}×100

| SMILES | GPR52 agonist activity (%) (human GPR52) | melting point | Activity Inhibition Rate (%) [1] |
| --- | --- | --- | --- |
| N#CCCNC(=O)c1cccc(-c2cccc3nn(Cc4ccc(F)c(Cl)c4)cc23)c1 [Working Example 65, 3-[2-(3-Chloro-4-fluorobenzyl)-2H-indazol-4-yl]-N-(2-cyanoethyl)benzamide] | 75% | – | – |
| Cn1c(Cc2cccc(C(F)(F)F)c2)nc2c(-c3cccc(C(=O)NCCC#N)c3)cccc21 [Working Example 88, N-(2-Cyanoethyl)-3-[1-methyl-2-[3-(trifluoromethyl)benzyl]-1H-benzimidazol-4-yl]benzamide] | 59% | – | 37% |
| COCCNC(=O)c1cccc(-c2ccc(F)c3cc(Cc4cccc(S(C)(=O)=O)c4)sc23)c1 [Working Example 159, 3-[4-Fluoro-2-[3-(methylsulfonyl)benzyl]-1-benzothiophen-7-yl]-N-(2-methoxyethyl)benzamide] | 80% | – | – |
| NC(=O)CNC(=O)c1cccc(-c2cccc3cc(Cc4ccc(F)c(Cl)c4)sc23)c1 [Working Example 174, N-(2-Amino-2-oxoethyl)-3-[2-(3-chloro-4-fluorobenzyl)-1-benzothiophen-7-yl]benzamide] | 90% | – | – |
| COCCNC(=O)c1cccc(-c2cccc3cc(Cc4cc(F)cc(Cl)c4)sc23)c1 [Working Example 179, 3-[2-(3-Chloro-5-fluorobenzyl)-1-benzothiophen-7-yl]-N-(2-methoxyethyl)benzamide] | 89% | – | – |
| NC(=O)c1cccc(-c2cccc3cc(COc4cccc(C(F)(F)F)c4)sc23)c1 [Working Example 184, 3-(2-[[3-(Trifluoromethyl)phenoxy]methyl]-1-benzothiophen-7-yl]benzamide] | 82% | – | – |
| NC(=O)CNC(=O)c1cncc(-c2cccc3cc(Cc4cc(F)cc(Cl)c4)sc23)c1 [Working Example 221, N-(2-Amino-2-oxoethyl)-5-[2-(3-chloro-5-fluorobenzyl)-1-benzothiophen-7-yl]pyridine-3-carboxamide] | 81% | – | – |
| NC(=O)CNC(=O)c1cccc(-c2cccc3sc(Cc4cccc(C(F)(F)F)c4)nc23)c1 [Working Example 252, N-(2-Amino-2-oxoethyl)-3-[2-[3-(trifluoromethyl)benzyl]-1,3-benzothiazol-4-yl]benzamide] | 80% | – | – |
| O=C(O)CNC(=O)c1cccc(-c2cccc3oc(Cc4cccc(C(F)(F)F)c4)cc23)c1 [Working Example 303, N-[(3-[2-[3-(Trifluoromethyl)benzyl]-1-benzofuran-4-yl]phenyl)carbonyl]glycine] | – | 89 to 94 °C | – |
| CC(C)OCCNC(=O)c1cccc(-c2cccc3cc(Cc4cc(F)cc(Cl)c4)sc23)c1 [Working Example 360, 3-[2-(3-Chloro-5-fluorobenzyl)-1-benzothiophen-7-yl]-N-[2-(1-methylethoxy)ethyl]benzamide] | 79% | – | 41% |
| NC(=O)CNC(=O)c1cccc(-c2cccc3c(F)c(Cc4cccc(C(F)(F)F)c4)sc23)c1 [Working Example 405, N-(2-Amino-2-oxoethyl)-3-[3-fluoro-2-[3-(trifluoromethyl)benzyl]-1-benzothiophen-7-yl]benzamide] | 113% | – | – |

Continued, in another order:

| GPR52 agonist activity (%) (human GPR52) | melting point | SMILES | Activity Inhibition Rate (%) [1] |
| --- | --- | --- | --- |
| 82% | – | O=C(NCCO)c1cccc(-c2cccc3oc(Cc4cccc(C(F)(F)F)c4)cc23)c1 [Working Example 7, N-(2-Hydroxyethyl)-3-[2-[3-(trifluoromethyl)benzyl]-1-benzofuran-4-yl]benzamide] | 89% |
| 74% | – | N#CCCNC(=O)c1ccnc(-c2cccc3oc(Cc4cccc(C(F)(F)F)c4)cc23)c1 [Working Example 21, N-(2-Cyanoethyl)-2-[2-[3-(trifluoromethyl)benzyl]-1-benzofuran-4-yl]isonicotinamide] | – |
| 75% | – | N#CCCNC(=O)c1cccc(-c2nccc3oc(Cc4cccc(C(F)(F)F)c4)cc23)c1 [Working Example 23, N-(2-Cyanoethyl)-3-[2-[3-(trifluoromethyl)benzyl]furo[3,2-c]pyridin-4-yl]benzamide] | – |
| 67% | – | O=C(NCCO)c1cccc(-c2cccn3c(=O)n(Cc4cccc(C(F)(F)F)c4)nc23)c1 [Working Example 99, N-(2-Hydroxyethyl)-3-[3-oxo-2-[3-(trifluoromethyl)benzyl]-2,3-dihydro[1,2,4]triazolo[4,3-a]pyridin-8-yl]benzamide] | – |
| 108% | – | NC(=O)CNC(=O)c1cccc(-c2cccc3sc(Cc4cccc(C(F)(F)F)c4)cc23)c1 [Working Example 165, N-(2-Amino-2-oxoethyl)-3-[2-[3-(trifluoromethyl)benzyl]-1-benzothiophen-4-yl]benzamide] | – |
| 94% | – | Cc1c(Cc2cccc(C(F)(F)F)c2)sc2c(-c3cccc(C(=O)NCCO)c3)cccc12 [Working Example 191, N-(2-Hydroxyethyl)-3-[3-methyl-2-[3-(trifluoromethyl)benzyl]-1-benzothiophen-7-yl]benzamide] | 65% |
| 88% | – | O=C(NCCO)c1ccnc(-c2cccc3cc(Cc4cccc(C(F)(F)F)c4)sc23)c1 [Working Example 198, N-(2-Hydroxyethyl)-2-[2-[3-(trifluoromethyl)benzyl]-1-benzothiophen-7-yl]pyridine-4-carboxamide] | 45% |
| 62% | – | O=C(NCCO)c1cccc(-c2cccc3cc(Cc4cc(F)cc(Cl)c4)sc23)n1 [Working Example 222, 6-[2-(3-Chloro-5-fluorobenzyl)-1-benzothiophen-7-yl]-N-(2-hydroxyethyl)pyridine-2-carboxamide] | – |
| 85% | – | NC(=O)CNC(=O)c1cccc(-c2ccc(F)c3cc(Cc4cccc(C(F)(F)F)c4)sc23)c1 [Working Example 230, N-(2-Amino-2-oxoethyl)-3-[4-fluoro-2-[3-(trifluoromethyl)benzyl]-1-benzothiophen-7-yl]benzamide] | 58% |
| 93% | – | O=C(NCCO)c1cccc(-c2ccnc3cc(Cc4cccc(C(F)(F)F)c4)sc23)c1 [Working Example 265, N-(2-hydroxyethyl)-3-[2-[3-(trifluoromethyl)benzyl]thieno[3,2-b]pyridin-7-yl]benzamide] | – |
| 94% | – | O=C(NCCO)c1cc(F)cc(-c2ccc(F)c3cc(Cc4cccc(C(F)(F)F)c4)sc23)c1 [Working Example 271, 3-Fluoro-5-[4-fluoro-2-[3-(trifluoromethyl)benzyl]-1-benzothiophen-7-yl]-N-(2-hydroxyethyl)benzamide] | – |
| 61% | – | CC(C)n1cc(Cc2cc3cccc(-c4cccc(C(=O)NCCO)c4)c3s2)ccc1=O [Working Example 292, N-(2-Hydroxyethyl)-3-[2-[[1-(1-methylethyl)-6-oxo-1,6-dihydropyridin-3-yl]methyl]-1-benzothiophen-7-yl]benzamide] | – |
| 92% | – | O=C1NCc2c1cccc2-c1cccc2cc(Cc3cccc(C(F)(F)F)c3)sc12 [Working Example 326, 4-[2-[3-(Trifluoromethyl)benzyl]-1-benzothiophen-7-yl]-2,3-dihydro-1H-isoindole-1-one] | – |
| 83% | – | O=C(NCCO)c1cccc(-c2cncc3cc(Cc4cccc(C(F)(F)F)c4)oc23)c1 [Working Example 413, N-(2-Hydroxyethyl)-3-[2-[3-(trifluoromethyl)benzyl]furo[3,2-c]pyridin-7-yl]benzamide] | – |
